Experimental data taken from the NIST ThermoML archive (doi:10.1021/je600568w).
Numbers after ± are expanded uncertainties.

Experiments:
[1] = xn = mol fraction of the nth substance listed; settings: 101 kPa, Liquid; for viscosity: Capillary tube (Ostwald / Ubbelohde) method
[2] = 101 kPa, Liquid; for viscosity: Capillary tube (Ostwald / Ubbelohde) method

CCOC(=O)C(C)O (stereo not drawn) [DL-ethyl lactate] + C=C(C)C(=O)OCc1ccccc1
[1], x1 = 1
Settings	mass density [kg/m3]	viscosity [mPa·s]
298.15 K	1029.1 ± 2.3	2.398 ± 0.051
308.15 K	1018.7 ± 2.3	1.863 ± 0.04
318.15 K	1007.5 ± 2.3	1.494 ± 0.032

C=C(C)C(=O)O [2-methyl-2-propenoic acid] + CCOC(=O)C(C)O
[1]
Settings	mass density, 298.15 K [kg/m3]	mass density, 308.15 K [kg/m3]	mass density, 318.15 K [kg/m3]	viscosity, 298.15 K [mPa·s]	viscosity, 308.15 K [mPa·s]	viscosity, 318.15 K [mPa·s]
x2 = 0	1009.5 ± 2.2	999.4 ± 2.2	989.2 ± 2.2	1.267 ± 0.027	1.078 ± 0.023	0.945 ± 0.02
x2 = 0.1	1012.1 ± 2.2	1002 ± 2.2	991.7 ± 2.2	1.422 ± 0.03	1.19 ± 0.025	1.02 ± 0.022
x2 = 0.2	1014.6 ± 2.2	1004.6 ± 2.2	994.5 ± 2.2	1.66 ± 0.035	1.368 ± 0.029	1.154 ± 0.025
x2 = 0.3	1017 ± 2.2	1007.4 ± 2.2	997.3 ± 2.2	1.933 ± 0.041	1.567 ± 0.033	1.306 ± 0.028
x2 = 0.3999	1019.8 ± 2.2	1010.2 ± 2.2	999.9 ± 2.2	2.181 ± 0.046	1.742 ± 0.037	1.43 ± 0.03
x2 = 0.5	1022.5 ± 2.3	1012.7 ± 2.3	1002.2 ± 2.3	2.378 ± 0.051	1.87 ± 0.04	1.52 ± 0.032
x2 = 0.6	1024.7 ± 2.3	1014.8 ± 2.3	1004.2 ± 2.3	2.465 ± 0.052	1.929 ± 0.041	1.551 ± 0.033
x2 = 0.6999	1026.5 ± 2.3	1016.5 ± 2.3	1005.8 ± 2.3	2.532 ± 0.054	1.967 ± 0.042	1.579 ± 0.034
x2 = 0.8	1027.9 ± 2.3	1017.8 ± 2.3	1007.2 ± 2.3	2.539 ± 0.054	1.962 ± 0.042	1.567 ± 0.033
x2 = 0.9001	1028.7 ± 2.3	1018.6 ± 2.3	1008.2 ± 2.3	2.471 ± 0.053	1.907 ± 0.041	1.526 ± 0.033

C=C(C)C(=O)OCCO [2-hydroxyethyl 2-methyl-2-propenoate]
[2]
Settings	mass density [kg/m3]	viscosity [mPa·s]
298.15 K	1067.1 ± 2.6	5.784 ± 0.13
308.15 K	1057.7 ± 2.6	4.194 ± 0.096
318.15 K	1048.6 ± 2.6	3.181 ± 0.073

C=C(C)C(=O)O [2-methyl-2-propenoic acid]
[2]
Settings	mass density [kg/m3]	viscosity [mPa·s]
298.15 K	1009.5 ± 2.2	1.267 ± 0.027
308.15 K	999.4 ± 2.2	1.078 ± 0.023
318.15 K	989.2 ± 2.2	0.945 ± 0.02

C=C(C)C(=O)OCCO [2-hydroxyethyl 2-methyl-2-propenoate] + CCOC(=O)C(C)O
[1]
Settings	mass density, 298.15 K [kg/m3]	mass density, 308.15 K [kg/m3]	mass density, 318.15 K [kg/m3]	viscosity, 298.15 K [mPa·s]	viscosity, 308.15 K [mPa·s]	viscosity, 318.15 K [mPa·s]
x2 = 0	1067.1 ± 2.6	1057.7 ± 2.6	1048.6 ± 2.6	5.784 ± 0.13	4.194 ± 0.096	3.181 ± 0.073
x2 = 0.1	1063.9 ± 2.5	1054.7 ± 2.5	1045.6 ± 2.5	5.23 ± 0.12	3.833 ± 0.087	2.938 ± 0.067
x2 = 0.2	1060.6 ± 2.5	1051.4 ± 2.5	1042.2 ± 2.5	4.75 ± 0.11	3.513 ± 0.079	2.71 ± 0.061
x2 = 0.3	1057.1 ± 2.5	1047.9 ± 2.5	1038.5 ± 2.5	4.36 ± 0.097	3.215 ± 0.072	2.493 ± 0.056
x2 = 0.4	1053.5 ± 2.4	1044.3 ± 2.4	1034.6 ± 2.4	3.989 ± 0.088	2.975 ± 0.066	2.311 ± 0.051
x2 = 0.5	1049.8 ± 2.4	1040.4 ± 2.4	1030.6 ± 2.4	3.663 ± 0.08	2.742 ± 0.06	2.141 ± 0.047
x2 = 0.6	1045.9 ± 2.4	1036.4 ± 2.4	1026.4 ± 2.4	3.343 ± 0.073	2.526 ± 0.055	1.985 ± 0.043
x2 = 0.7	1041.8 ± 2.3	1032.2 ± 2.3	1022 ± 2.3	3.041 ± 0.066	2.323 ± 0.05	1.834 ± 0.04
x2 = 0.8	1037.7 ± 2.3	1027.9 ± 2.3	1017.5 ± 2.3	2.767 ± 0.06	2.127 ± 0.046	1.689 ± 0.036
x2 = 0.9	1033.4 ± 2.3	1023.4 ± 2.3	1012.8 ± 2.3	2.524 ± 0.054	1.949 ± 0.042	1.556 ± 0.033

C=C(C)C(=O)OCc1ccccc1 [benzyl methacrylate] + CCOC(=O)C(C)O
[1]
Settings	mass density, 298.15 K [kg/m3]	mass density, 308.15 K [kg/m3]	mass density, 318.15 K [kg/m3]	viscosity, 298.15 K [mPa·s]	viscosity, 308.15 K [mPa·s]	viscosity, 318.15 K [mPa·s]
x2 = 0	1034.7 ± 2.5	1025.8 ± 2.5	1017 ± 2.5	2.302 ± 0.053	1.885 ± 0.043	1.58 ± 0.036
x2 = 0.1	1033.7 ± 2.5	1024.3 ± 2.5	1015.1 ± 2.5	2.219 ± 0.05	1.832 ± 0.042	1.53 ± 0.035
x2 = 0.1999	1032.7 ± 2.4	1023.3 ± 2.4	1013.9 ± 2.4	2.166 ± 0.049	1.8 ± 0.041	1.493 ± 0.034
x2 = 0.3	1032.1 ± 2.4	1022.6 ± 2.4	1012.9 ± 2.4	2.153 ± 0.048	1.77 ± 0.04	1.458 ± 0.033
x2 = 0.4	1031.6 ± 2.4	1021.9 ± 2.4	1012.1 ± 2.4	2.149 ± 0.048	1.753 ± 0.039	1.437 ± 0.032
x2 = 0.5	1031.1 ± 2.4	1021.2 ± 2.4	1011.2 ± 2.3	2.161 ± 0.048	1.749 ± 0.039	1.426 ± 0.031
x2 = 0.6	1030.7 ± 2.3	1020.6 ± 2.3	1010.4 ± 2.3	2.179 ± 0.048	1.753 ± 0.038	1.426 ± 0.031
x2 = 0.7	1030.2 ± 2.3	1020 ± 2.3	1009.5 ± 2.3	2.209 ± 0.048	1.761 ± 0.038	1.431 ± 0.031
x2 = 0.7999	1029.8 ± 2.3	1019.4 ± 2.3	1008.7 ± 2.3	2.25 ± 0.048	1.782 ± 0.038	1.447 ± 0.031
x2 = 0.9	1029.4 ± 2.3	1018.9 ± 2.3	1008 ± 2.3	2.303 ± 0.049	1.807 ± 0.039	1.464 ± 0.031

CCOC(=O)C(C)O (stereo not drawn) [DL-ethyl lactate] + C=C(C)C(=O)O
[1], x1 = 1
Settings	mass density [kg/m3]	viscosity [mPa·s]
298.15 K	1029.1 ± 2.3	2.398 ± 0.051
308.15 K	1018.7 ± 2.3	1.863 ± 0.04
318.15 K	1007.5 ± 2.3	1.494 ± 0.032

CCOC(=O)C(C)O (stereo not drawn) [DL-ethyl lactate] + C=C(C)C(=O)OCCO
[1], x1 = 1
Settings	mass density [kg/m3]	viscosity [mPa·s]
298.15 K	1029.1 ± 2.3	2.398 ± 0.051
308.15 K	1018.7 ± 2.3	1.863 ± 0.04
318.15 K	1007.5 ± 2.3	1.494 ± 0.032

CCOC(=O)C(C)O (racemic) [DL-ethyl lactate]
[2]
Settings	mass density [kg/m3]	viscosity [mPa·s]
298.15 K	1029.1 ± 2.3	2.398 ± 0.051
308.15 K	1018.7 ± 2.3	1.863 ± 0.04
318.15 K	1007.5 ± 2.3	1.494 ± 0.032

C=C(C)C(=O)OCc1ccccc1 [benzyl methacrylate]
[2]
Settings	mass density [kg/m3]	viscosity [mPa·s]
298.15 K	1034.7 ± 2.5	2.302 ± 0.053
308.15 K	1025.8 ± 2.5	1.885 ± 0.043
318.15 K	1017 ± 2.5	1.58 ± 0.036
